Measurements from patent US20250129012A1, “ANTI-INFLAMMATORY AND ANALGESIC COMPOUNDS AND USE THEREOF” (JIANGSU ATOM BIOSCIENCE AND PHARMACEUTICAL CO., LTD., priority 2021, published 2025).
Read-outs that look alike come from different tables or passages of the source. Marks after values point to notes of the source that are not given here.

What was measured:
[1] = tested on: gouty arthritis rats (sodium urate, right ankle and knee joint cavities); assay: Pharmacodynamics experiment B on gouty arthritis rats: gait score; format: in vivo, SD rats; details: for Gait Score: dose 0.6 mg/kg gavage, mean; for Gait versus model group, in words: compounds 0.6 mg/kg, colchicine 0.6 and 1.2 mg/kg
Description: (§1) Compounds 12, 16, 19, 30, 34, 36, 38, 40, 44, 48, 49, 52, 58, 69, 83, 98, 102, 119, 121, and 122 were prepared by grinding with 0.5% CMC-Na prior to administration and formulated into suspensions of appropriate concentration (0.12 mg/mL) for gavage, with an administered dose of 0.5 mL/100 g.
(§2) 240 SD rats, males, were acclimatized for one week and weighed 180-220 g. […] The dose of each compound group was 0.6 mg/kg. The compounds in each group were prepared into the corresponding concentration suspension, and the volume of administration was 10 mL/kg.
(§3) 250 mg of sodium urate were added to 9 mL of saline, and 1 mL of Tween-80 solution was added, the resulting mixture was heated and stirred to formulate 10 mL of sodium urate solution. The rats were grasped and fixed, and 0.2 mL of sodium urate solution was injected into the right ankle and knee joint cavities respectively to establish gouty arthritis rat model.
(§4) Before modeling, positive drug and tested compounds were pre-administered for 7 days, once a day, and modeling was performed on day 8, and drug administration by gavage continued for 3 days after modeling.
Gait was scored according to the modified gait grading criteria introduced by Coderre et al. The gait of each rat was observed before and 2 h, 4 h, 8 h, 10 h, 24 h and 48 h after modeling and graded scoring was performed. The gait grading criteria were as follows: 0 point, normal walking; 1 point, slight lameness, the lower limbs were slightly bent; 2 points: moderate lameness, the lower limbs just touched the ground; 3 points, severe lameness, the lower limbs left the ground, and walked on three feet. The mean score of each group was calculated and compared with that of the model group.
(§5) Each experimental data was expressed as the mean, and intergroup comparisons were examined for significance using the ANOVA-Dunnett T-test, with P<0.05 as the significance indicator.

[2] = tested on: gouty arthritis rats (sodium urate, right ankle and knee joint cavities); assay: Pharmacodynamics experiment B on gouty arthritis rats: ankle swelling rate; format: in vivo, SD rats; details: Rattus norvegicus, po, read-out: Swelling rate (ankle)
Description: as §1, §2, §3, §4
Before modeling and 2 h, 4 h, 8 h, 10 h, 24 h and 48 h after modeling, the circumference of the right ankle joint was measured using a soft ruler or the volume change at the ankle was measured (volumetric method), and the swelling degree and swelling rate of ankle joint were calculated:
Swelling degree (mm)=measured circumference (mm)−baseline circumference (mm)
Swelling rate (%)=swelling degree (mm)/baseline circumference (mm)×100%
as §5

| Compound | Gait Score ([1]; 2 h) | Gait Score ([1]; 4 h) | Gait Score ([1]; 8 h) | Gait Score ([1]; 10 h) | Gait Score ([1]; 24 h) | Gait Score ([1]; 48 h) | Gait versus model group, in words [1] | change in vivo at 0.6 mg/kg ([2]; 2 h) | change in vivo at 0.6 mg/kg ([2]; 4 h) | change in vivo at 0.6 mg/kg ([2]; 8 h) | change in vivo at 0.6 mg/kg ([2]; 10 h) | change in vivo at 0.6 mg/kg ([2]; 24 h) | change in vivo at 0.6 mg/kg ([2]; 48 h) |
| --- | --- | --- | --- | --- | --- | --- | --- | --- | --- | --- | --- | --- | --- |
| COc1cc2c(c(OC)c1OC)-c1cc(I)c(OC)c(=O)cc1[C@@H](NC(C)=O)CC2 [Compound 12, (S)—N-(11-iodo-1,2,3,10-tetramethoxy-9-oxo-5,6,7,9-tetrahydrobenzo[a]heptalen-7-yl)acetamide] | 0 | 0 | 0* | 0* | 0 | 0 | significant improvement in gait occurred at different time points | 10.8% | 16.5% | 18.7% | 31.4% | 22.8% | 15% |
| COc1cc2c(c(OC)c1OC)-c1cc(C)c(OC)c(=O)cc1[C@@H](NC(C)=O)CC2 [Compound 16, (S)—N-(1,2,3,10-tetramethoxy-11-methyl-9-oxo-5,6,7,9-tetrahydrobenzo[a]heptalen-7-yl)acetamide] | 0 | 0.1 | 0* | 0* | 0 | 0 | significant improvement in gait occurred at different time points | 9.71% | 13% | 17.8% | 17.4% | 18.6% | 6.17% |
| COc1cc2c(c(OC)c1OC)-c1cc(C)c(O[C@H]3CCOC3)c(=O)cc1[C@@H](NC(C)=O)CC2 [Compound 30, N—{(S)-1,2,3-trimethoxy-11-methyl-9-oxo-10-{[(S)-tetrahydrofuran-3-yl]oxy}-5,6,7,9-tetrahydrobenzo[a]heptalen-7-yl}acetamide] | 0 | 0 | 0* | 0* | 0.3 | 0 | significant improvement in gait occurred at different time points | -4.04% | 1.2% | 0.57% | 6.69% | 9.77% | -1.34% |
| COc1cc2c(c(OC)c1OC)-c1ccc(OCC(F)(F)F)c(=O)cc1[C@@H](NC(C)=O)CC2 [Compound 36, (S)—N-{1,2,3-trimethoxy-9-oxo-10-(2,2,2-trifluoroethoxy)-5,6,7,9-tetrahydrobenzo[a]heptalen-7-yl}acetamide] | 0 | 0 | 0* | 0* | 0.2 | 0.1 | significant improvement in gait occurred at different time points | -3.59% | 2.37% | 2.62% | 10.4% | 10% | -2.54% |
| COC(=O)c1cc2c(cc(=O)c1OC)[C@@H](NC(C)=O)CCc1cc(OC)c(OC)c(OC)c1-2 [Compound 40, methyl (S)-7-acetamido-1,2,3,10-tetramethoxy-9-oxo-5,6,7,9-tetrahydrobenzo[a]heptalen-11-carboxylate] | 0 | 0 | 0* | 0* | 0.4 | 0 | significant improvement in gait occurred at different time points | 5.81% | 7.96% | 11.2% | 9.9% | 21.7% | 9.33% |
| COc1cc2c(c(OC)c1OC)-c1ccc(N3CCCC3=O)c(=O)cc1[C@@H](NC(C)=O)CC2 [Compound 52, (S)—N-[1,2,3-trimethoxy-9-oxo-10-(2-oxo-pyrrolidin-1-yl)-5,6,7,9-tetrahydrobenzo[a]heptalen-7-yl]acetamide] | 0 | 0 | 0* | 0* | 0 | 0 | significant improvement in gait occurred at different time points | 11% | 9.83% | 11.8% | 30.2% | 22% | 7.88% |
| COc1cc2c(c(OC)c1OC)-c1ccc(C(=O)N3CCOCC3)c(=O)cc1[C@@H](NC(C)=O)CC2 [Compound 83, (S)—N-{1,2,3-trimethoxy-10-(morpholine-4-carbonyl)-9-oxo-5,6,7,9-tetrahydrobenzo[a]heptalen-7-yl}acetamide] | 0 | 0 | 0* | 0* | 0 | 0 | significant improvement in gait occurred at different time points | 8.31% | 10.4% | 16.6% | 21.1% | 26.3% | 15.3% |
| CNC(=O)c1ccc2c(cc1=O)[C@@H](NC(=O)C1CC1)CCc1cc(OC)c(OC)c(OC)c1-2 [Compound 102, (S)-7-(3-cyclopropylcarbonylamino)-1,2,3-trimethoxy-N-methyl-9-oxo-5,6,7,9-tetrahydrobenzo[a]heptalen-10-carboxamide] | 0 | 0 | 0.27 | 0.09* | 0 | 0 | – | 14.1% | 13.6% | 14.4% | 19.3% | 16.7% | 9.4% |
